Consider 26 compounds from ChEMBL document CHEMBL3352695, “Synthesis and biological evaluation of novel isoxazoles and triazoles linked 6-hydroxycoumarin as potent cytotoxic agents” (Bioorg Med Chem Lett, 2014).

Format in all cases: functional, cell-based
For one experiment, the system named is A549. Nature of the experiment: Cytotoxicity against human A549 cells after 48 hrs by MTT assay. The conditions noted are these: A549, 48 h.
The nature of experiment [1]: Cytotoxicity against human PC3 cells after 48 hrs by MTT assay. The conditions noted are these: PC-3, 48 h.
Experiment [2] in a line: Cytotoxicity against human HL60 cells after 48 hrs by MTT assay. The conditions noted are these: HL-60, 48 h.
A short description of experiment [3]: Cytotoxicity against human HCT116 cells after 48 hrs by MTT assay. The conditions noted are these: HCT-116, 48 h.
The test system of the next experiment is COLO 205. Nature of the experiment: Cytotoxicity against human COLO205 cells after 48 hrs by MTT assay. The conditions noted are these: COLO 205, 48 h.

In turn, `C#CCOc1ccc2oc(=O)ccc2c1` returned an IC50 with A549 of 24 µM.
For `O=c1ccc2cc(OCc3cc(-c4ccccc4Cl)no3)ccc2o1`, the IC50 in experiment [1] is 18.2 µM.
With `O=c1ccc2cc(OCc3cc(-c4ccccc4)no3)ccc2o1`, the figures for the IC50 in experiment [1] and in experiment [2] were 53.2 µM and 43.3 µM, respectively.
For the compound `O=c1ccc2cc(OCc3cc(-c4ccc5ccccc5c4)no3)ccc2o1`, the 50% inhibitory concentration (IC50) in experiment [3] stood at 55.9 µM; in experiment [2], 55.7 µM; in the experiment with COLO 205, 48.7 µM.
For the compound `O=c1ccc2cc(OCc3cc(-c4cccc5ccccc45)no3)ccc2o1`, the IC50 was 51.5 µM in experiment [3], 41.6 µM in experiment [2] and 47.2 µM in the experiment on COLO 205.
The like results for `O=c1ccc2cc(OCc3cc(-c4cccc(Cl)c4)no3)ccc2o1` were, in that order, 42.1 µM, 50.6 µM and 32.5 µM.
On the same counts, the results for `O=c1ccc2cc(OCc3cc(-c4ccc(Cl)cc4)no3)ccc2o1` are 55.8 µM, 44.6 µM and 44.5 µM.
In experiment [1], `O=c1ccc2cc(OCc3cc(-c4ccccc4[N+](=O)[O-])no3)ccc2o1` had an IC50 of 8.2 µM.
Regarding `O=c1ccc2cc(OCc3cc(-c4cccc([N+](=O)[O-])c4)no3)ccc2o1`, the IC50 in the experiment with A549 was 36.2 µM; in experiment [3], 48.2 µM; in experiment [2] it was 44.4 µM; in the experiment on COLO 205 it was 48.3 µM.
Turning to `O=c1ccc2cc(OCc3cc(-c4ccc([N+](=O)[O-])cc4)no3)ccc2o1`, the IC50 in experiment [3] amounted to 42.2 µM; in experiment [2] it was 55.8 µM; with COLO 205 it was 47.8 µM.
For `N#Cc1ccccc1-c1cc(COc2ccc3oc(=O)ccc3c2)on1`, the IC50 in the experiment with A549 turned out to be 55.8 µM; in experiment [1] it was 13.6 µM.
`COc1ccccc1-c1cc(COc2ccc3oc(=O)ccc3c2)on1` showed an IC50 in experiment [1] of 22.4 µM.
As for `O=c1ccc2cc(OCc3cn(-c4ccccc4)nn3)ccc2o1`, the IC50 in experiment [3] turned out to be 51.5 µM; in experiment [2] it was 41.6 µM; with COLO 205, 48.8 µM.
For `COc1ccc(-n2cc(COc3ccc4oc(=O)ccc4c3)nn2)cc1`, the IC50 was determined as 46.8 µM with A549, 37.8 µM in experiment [3], 46.4 µM in experiment [2] and 32.8 µM with COLO 205.
With `N#CCc1ccc(-n2cc(COc3ccc4oc(=O)ccc4c3)nn2)cc1`, in the experiment on A549, the half-maximal inhibitory concentration (IC50) came out at 29.2 µM.
Turning to `O=c1ccc2cc(OCc3cn(-c4cccc(CO)c4)nn3)ccc2o1`, 35.1 µM corresponded to half-maximal inhibition in the experiment on A549 (IC50).
On to `CC(=O)Nc1ccc(-n2cc(COc3ccc4oc(=O)ccc4c3)nn2)cc1`, for which the half-maximal inhibitory concentration (IC50) in experiment [2] stood at 40.4 µM.
`O=c1ccc2cc(OCc3cn(-c4ccccc4Cl)nn3)ccc2o1`: the IC50 with A549 came out at 17.1 µM.
Turning to `O=c1ccc2cc(OCc3cn(-c4cccc([N+](=O)[O-])c4)nn3)ccc2o1`, the IC50 in experiment [1] worked out at 49.3 µM; in experiment [3], 26.9 µM; in experiment [2] it was 20.5 µM; in the experiment with COLO 205, 36.6 µM.
Regarding `O=c1ccc2cc(OCc3cn(-c4ccc(Cl)c(Cl)c4)nn3)ccc2o1`, the IC50 in experiment [3] came to 57.3 µM; in experiment [2] it was 47.8 µM.
For `O=c1ccc2cc(OCc3cn(-c4ccccc4[N+](=O)[O-])nn3)ccc2o1`, the IC50 amounted to 10.2 µM with A549, 55.8 µM in experiment [3] and 44.6 µM in experiment [2].
Regarding `O=c1ccc2cc(OCc3cn(-c4ccc([N+](=O)[O-])cc4)nn3)ccc2o1`, the IC50 with A549 amounted to 33.6 µM; in experiment [3], 44.3 µM; in experiment [2], 46 µM; in the experiment on COLO 205 it was 48.7 µM.
As for `N#Cc1ccccc1-n1cc(COc2ccc3oc(=O)ccc3c2)nn1`, the IC50 stood at 12.6 µM in the experiment with A549 and 52.1 µM in experiment [2].
The like results for `COc1ccccc1-n1cc(COc2ccc3oc(=O)ccc3c2)nn1` were, in that order, 18.7 µM and 55.2 µM.
Consider `O=c1ccc2cc(O)ccc2o1` [6-HYDROXYCOUMARIN], for which the IC50 in experiment [3] amounted to 46.2 µM; in experiment [2] it was 35 µM; in the experiment on COLO 205, 38.7 µM.
On to `Cn1c(=O)n(-c2ccc(C(C)(C)C#N)cc2)c2c3cc(-c4cnc5ccccc5c4)ccc3ncc21` [DACTOLISIB], for which the 50% inhibitory concentration (IC50) in the experiment with A549 worked out at 6.5 µM; in experiment [1], 12.3 µM; in experiment [3], 0.044 µM; in experiment [2], 12.4 µM; with COLO 205, 0.085 µM.
